The record followed here is US4386075A, “Renally active tetrapeptides” (SmithKline Beckman Corporation, priority 1982, dated 1983).

One test concerns toad bladder. As to conditions: toad bladder test.
For test [1] the following is noted: secondary test.
The subject of test [2] is spontaneously hypertensive rat. As to conditions: in vivo.
A further test has as its system anesthetized dogs. Briefly: anesthetized dog infusion test (MAP, RBF, RVR, HR). It counts as in vivo. As to conditions: for % change HR (heart rate) / % change MAP (mean arterial blood pressure) / % change RBF (renal blood flow) / % change RVR (renal vascular resistance): 1 dog. The text has this:
In the anesthetized dog protocol discussed above this compound gave the following data: […]

Setting [3] is: 300 μg/kg/min, anesthetized dog, cumulative effects.

With “4-(4-hydroxyphenyl)-butyryl-L-propyl-D,L-α-methylphenylalanyl-glycyl-L-proline [Example 2]”, the “reversal of antidiuretic hormone activity” value in the test with toad bladder is “inactive”. This compound returned an ED15 in test [1] of 1.9 µg/kg. Also, in test [2], the “activity in spontaneously hypertensive rat protocol” value is listed as “not active” and the “diuresis in spontaneously hypertensive rat protocol” value is given as “slight water diuresis”. Besides, in the test with anesthetized dogs (infusion 3 μg/kg/min), the “% change HR (heart rate)” value turned out to be 6%, the “% change MAP (mean arterial blood pressure)” value (“% change MAP” below) is given as -5%, the “% change RBF (renal blood flow)” value amounted to 17% and the “% change RVR (renal vascular resistance)” value is given as -18%. Besides, in the test with anesthetized dogs (infusion 30 μg/kg/min), the “% change HR (heart rate)” value is given as 10%, the “% change MAP” value is -9%, the “% change RBF (renal blood flow)” value was determined as 16% and the “% change RVR (renal vascular resistance)” value was -21%. For the same compound, in the test with anesthetized dogs (infusion 300 μg/kg/min), the “% change HR (heart rate)” value is on record as 6%, the “% change MAP” value is listed as -6%, the “% change RBF (renal blood flow)” value was determined as 14% and the “% change RVR (renal vascular resistance)” value is on record as -17%. For the same compound, in the test with anesthetized dogs (measured after the normal period of the test, increased from 127 ml/min), the “renal blood flow, cumulative effect” value worked out at 162 mL/min. Also, in the test with anesthetized dogs (measured after the normal period of the test, predrug level 140 BPM), the “cardiac rate (HR), cumulative effect” value amounted to 105 BPM.
In test [1], `NCCc1ccc(O)c(O)c1` [Dopamine, reference compound] showed an ED15 of 3.5 µg/kg. For the same compound, the ED15 result with anesthetized dogs (dog test procedure) is listed as “about 3 mcg/kg/min”. Further, in the test on anesthetized dogs (infusion 3 μg/kg/min), the “% change HR (heart rate)” value is 2%, the “% change MAP” value is on record as -16%, the “% change RBF (renal blood flow)” value amounted to 28% and the “% change RVR (renal vascular resistance)” value is on record as -34%.
On to “N-4-(4-hydroxyphenyl)-butyryl-L-prolyl-D-phenylalanyl-glycyl-L-proline [Example 3]”, for which, in the test on anesthetized dogs (setting [3]), the “cumulative effect HR” value is on record as -8, the “cumulative effect MAP” value came to 0, the “cumulative effect RBF” value is reported as “+22” and the “cumulative effect RVR” value is -18.
